Details of data set [1]: method as in earlier work. The following applies: buffered water pH 4–9; cited from earlier work.
Data set [2] in a line: Particle size measurement by laser scattering (Horiba LA-950) and stability of suspensions stored at 4°C. In kind it is physicochemical. As for the experimental part: The particle size was measured using a Horiba LA-950 particle size distribution analyzer (Kyoto, Japan), based on laser scattering. This particular instrument has a measurement period of less than 2 minutes from introduction of sample to data presentation with a sample requirement for testing of 2–5 mg per measurement in a 150 mL flow cell, depending on the sample type. All DQ and WR2996666 preparations were measured at a range of transmittance between 80–90%. Various volumes ranging from 100 μL to 800 μL of samples with about 5–10 mg solid from each vial were tested in this instrument to determine the mean particle size, which was the particle size parameter referred in the results. In order to see the change of particle size of various preparations over time, an accelerated stability study of prepared micro- and nanosuspensions were carried out at a temperature of 4°C for a period of up to 3 weeks. Accurately weighed amounts of samples were placed into glass vials with aluminum-lined caps and stored in a microprocessor-controlled humidity chamber, and the samples were then characterized as a function of exposed time. The stability of particles shown in Tables 1 and 2 was some of the preparations evaluated in this study. Generally, the particles in aqueous suspension dosed in our animals were stable for at least 3 weeks.

Data set [3] in a line: HPLC check of drug integrity after formulation and HPH. The following applies: any of the preparations including microparticles and nanoparticles. In kind it is physicochemical. Here is the method: The rehydrated DQ nanoparticle formulations were evaluated by particle size measurement, determination of drug concentration in the whole suspension as well as in the fine particles less than […], and PK study in drug dosed animals. The particle size was monitored throughout the preparation procedure and before and after animal studies. To ensure that there was no change of the drug integrity in any of the formulation procedure, drug concentrations and chromatography profiles of the drug molecule identity were examined by an Agilent HPLC (Agilent Technologies, Foster City, CA) with an isocratic mobile phase of 20% water and 80% acetonitrile (0.1% formic acid contained in water and acetonitrile, resp.). All drug preparations in aqueous system were diluted in methanol with vigorous vortex and then in acetonitrile for HPLC analysis. This was done to obtain complete extraction of the compound prior to loading the samples to HPLC. To evaluate the amount of DQ in the fine particles, formulation suspensions were prepared in the amount of 10 mg/mL of DQ in water, incubated at 37°C for 2 hours and passed through a […] size filter. […] In order to determine the actual dosage of the drug for animal studies, the concentration of the drug used for dosing animals was determined by HPLC without prior particle size fractionation with filtration.

Details of data set [4]: method as in PMID 11000543. The following applies: formulated into various solid dispersions; cited from earlier work.

We go through three molecules from paper PMC3666196, “Formulation and Particle Size Reduction Improve Bioavailability of Poorly Water-Soluble Compounds with Antimalarial Activity” (Malaria Research and Treatment, 2013).

For `CCCCCCCCCCOc1cc2c(O)c(C(=O)OCC)cnc2cc1OCC` [DQ, ethyl 6-decyloxy-7-ethoxy-4-hydroxy-3-quinolinecarboxylate, reference compound], in data set [1], the Solubility in water is less than 0.01 µg/mL. The “Particle size of generated nanoparticles” value in data set [2] (DQ formulation with poloxamer 407 as surfactant, after HPH) was more than 0.5 μm. Further, the Particle size worked out at 99.23 μm in data set [2] (DQ in water or HECT suspension, method HG (homogenizer with generator), stored at 4°C, Week 1); 36.62 μm in data set [2] (DQ suspension in HECT, method US (ultra-sonicator), stored at 4°C, Week 1); 102.04 μm in data set [2] (DQ suspension, method HG, stored at 4°C, Mean of weeks 1-3); 101.33 μm in data set [2] (DQ suspension, method HG, stored at 4°C, Week 2); 105.56 μm in data set [2] (DQ suspension, method HG, stored at 4°C, Week 3); 36.88 μm in data set [2] (DQ suspension, method US, stored at 4°C, Mean of weeks 1-3). For the same molecule, the Particle size worked out at 36.97 μm in data set [2] (DQ suspension, method US, stored at 4°C, Week 2); 36.92 μm in data set [2] (DQ suspension, method US, stored at 4°C, Week 3); 0.401 μm in data set [2] (DQ, method SD (solid dispersion) plus HPH, in water, stored at 4°C, Week 1); 0.392 μm in data set [2] (DQ, method SD plus HPH, stored at 4°C, Mean of weeks 1-3); 0.384 μm in data set [2] (DQ, method SD plus HPH, stored at 4°C, Week 2); 0.377 μm in data set [2] (DQ, method SD plus HPH, stored at 4°C, Week 3). Besides, the “Particle size of DQ formulations” value in data set [2] (solid dispersion with polymers and surfactants, sonication followed by HPH at 1500–2500 bars, 120 homogenization cycles) is listed as 0.2–0.4 μm. For the same molecule, the “Chromatography profile (mass quantity, retention time) after formulation process and HPH” value in data set [3] is reported as “no change in chromatography profile”.
In the case of `[H]/N=C(/N=C1NC(=O)C(=O)N1C)Nc1ccc(Cl)c(Cl)c1` [WR299666, (E)-1-(3,4-dichlorophenyl)-3-(1-methyl-4,5-dioxoimidazolidin-2-ylidene) guanidine], the Particle size in data set [2] (WR299666, HPH at 2500 bars in 6 homogenization cycles) was 0.38–0.48 μm; in data set [2] (WR299666 in water or HECT suspension, method Grinder, stored at 4°C, Week 1) it was 42.54 μm; in data set [2] (WR299666 suspension, method Grinder, stored at 4°C, Mean of weeks 1-3) it was 42.22 μm; in data set [2] (WR299666 suspension, method Grinder, stored at 4°C, Week 2), 41.07 μm; in data set [2] (WR299666 suspension, method Grinder, stored at 4°C, Week 3), 43.05 μm; in data set [2] (WR299666 suspension, method HG, stored at 4°C, Mean of weeks 1-3) it was 61.88 μm. Moreover, the Particle size came to 66.31 μm in data set [2] (WR299666 suspension, method HG, stored at 4°C, Week 1); 71.85 μm in data set [2] (WR299666 suspension, method HG, stored at 4°C, Week 2); 47.49 μm in data set [2] (WR299666 suspension, method HG, stored at 4°C, Week 3); 0.406 μm in data set [2] (WR299666 suspension, method HPH, stored at 4°C, Mean of weeks 1-3); 0.376 μm in data set [2] (WR299666 suspension, method HPH, stored at 4°C, Week 1); 0.397 μm in data set [2] (WR299666 suspension, method HPH, stored at 4°C, Week 2). In addition, the Particle size is 0.445 μm in data set [2] (WR299666 suspension, method HPH, stored at 4°C, Week 3); 1.5 μm in data set [2] (WR299666 suspension, method US, stored at 4°C, Mean of weeks 1-3); 1.50 μm in data set [2] (WR299666 suspension, method US, stored at 4°C, Mean of weeks 1-3, listed as W299666); 1.52 μm in data set [2] (WR299666 suspension, method US, stored at 4°C, Week 1); 1.58 μm in data set [2] (WR299666 suspension, method US, stored at 4°C, Week 2); 1.41 μm in data set [2] (WR299666 suspension, method US, stored at 4°C, Week 3). The “Average particle size of starting raw material” value in data set [2] (without treatment) is “above 70 μm”.
For the molecule `CCCCN(CCCC)CCC(O)c1cc2c(Cl)cc(Cl)cc2c2cc(C(F)(F)F)ccc12` (stereo not drawn) [halofantrine], the “Increase in absolute bioavailability” value in data set [4] was “five- to seven”.
